Laboratory results reported in patent US20160272626A1, “PYRAZINE DERIVATIVES” (HOFFMANN-LA ROCHE INC., priority 2012, published 2016).
Structures can show the parent of a compound that is named as a salt.

Key:
[1] = biological target: T1, rat TAAR1 (Rattus norvegicus, UniProt Q923Y9); test: Radioligand binding assay on rat TAAR1; settings: for Ki: rat TAAR1, HEK-293 membranes, second value of cell mouse/rat
T1 construct: expressed in transfected cells; membrane preparation
Procedure: (§1) For the construction of expression plasmids the coding sequences of human, rat and mouse TAAR 1 were amplified from genomic DNA essentially as described by Lindemann et al.. The Expand High Fidelity PCR System (Roche Diagnostics) was used with 1.5 mM Mg^2+ and purified PCR products were cloned into pCR2.1-TOPO cloning vector (Invitrogen) following the instructions of the manufacturer. PCR products were subcloned into the pIRESneo2 vector (BD Clontech, Palo Alto, Calif.), and expression vectors were sequence verified before introduction in cell lines.
(§2) HEK293 cells (ATCC # CRL-1573) were cultured essentially as described by Lindemann et al. (2005). For the generation of stably transfected cell lines HEK293 cells were transfected with the pIRESneo2 expression plasmids containing the TAAR coding sequences (described above) with Lipofectamine 2000 (Invitrogen) according to the instructions of the manufacturer, and 24 hrs post transfection the culture medium was supplemented with 1 mg/ml G418 (Sigma, Buchs, Switzerland). After a culture period of about 10 d clones were isolated, expanded and tested for responsiveness to trace amines (all compounds purchased from Sigma) with the cAMP Biotrak Enzyme immunoassay (EIA) System (Amersham) following the non-acetylation EIA procedure provided by the manufacturer.
Radioligand Binding Assay on Rat TAAR1
(§3) Membrane Preparation and Radioligand Binding.
HEK-293 cells stably expressing rat TAAR1 were maintained at 37° C. and 5% CO2 in DMEM high glucose medium, containing fetal calf serum (10%, heat inactivated for 30 min at 56° C.), penicillin/streptomycin (1%), and 375 μg/ml geneticin (Gibco). Cells were released from culture flasks using trypsin/EDTA, harvested, washed twice with ice-cold PBS (without Ca^2+ and Mg^2+), pelleted at 1,000 rpm for 5 min at 4° C., frozen and stored at −80° C. Frozen pellets were suspended in 20 ml HEPES-NaOH (20 mM, pH 7.4) containing 10 mM EDTA and homogenized with a Polytron (PT 6000, Kinematica) at 14,000 rpm for 20 s. The homogenate was centrifuged at 48,000×g for 30 min at 4° C. Subsequently, the supernatant was removed and discarded, and the pellet resuspended in 20 ml HEPES-NaOH (20 mM, pH 7.4) containing 0.1 mM EDTA using the Polytron (20 s at 14,000 rpm). This procedure was repeated and the final pellet resuspended in HEPES-NaOH containing 0.1 mM EDTA and homogenized using the Polytron. Typically, aliquots of 2 ml membrane portions were stored at −80° C. With each new membrane batch the dissociation constant (Kd) was determined via a saturation curve. […] Nonspecific binding was defined as the amount of ^3[H]—(S)-4-[(ethyl-phenyl-amino)-methyl]-4,5-dihydro-oxazol-2-ylamine bound in the presence of 10 μM unlabeled ligand. All compounds were tested at a broad range of concentrations (10 pM to 10 μM) in duplicates. The test compounds (20 μl/well) were transferred into a 96 deep well plate (TreffLab), and 180 μl of HEPES-NaOH (20 mM, pH 7.4) containing MgCl2 (10 mM) and CaCl2 (2 mM) (binding buffer), 300 μl of the radioligand ^3[H]—(S)-4-[(ethyl-phenyl-amino)-methyl]-4,5-dihydro-oxazol-2-ylamine at a concentration of 3.3×Kd in nM and 500 μl of the membranes (resuspended at 50 μg protein per ml) added. The 96 deep well plates were incubated for 1 hr at 4° C. Incubations were terminated by rapid filtration through Unifilter-96 plates (Packard Instrument Company) and glass filters GF/C (Perkin Elmer) presoaked for 1 hr in polyethylenimine (0.3%) and washed 3 times with 1 ml of cold binding buffer. After addition of 45 μl of Microscint 40 (PerkinElmer) the Unifilter-96 plate was sealed and after 1 hr the […] counted using a TopCount Microplate Scintillation Counter (Packard Instrument Company).

[2] = biological target: T2, mouse TAAR1 (Mus musculus, UniProt Q923Y8); test: Radioligand binding assay on mouse TAAR1; settings: for Ki: mouse TAAR1, HEK-293 membranes, first value of cell mouse/rat
T2 construct: expressed in transfected cells; membrane preparation
Procedure: as §1, §2
Radioligand Binding Assay on Mouse TAAR1
as §3
HEK-293 cells stably expressing mouse TAAR1 were maintained at 37° C. and 5% CO2 in DMEM high glucose medium, containing fetal calf serum (10%, heat inactivated for 30 min at 56° C.), penicillin/streptomycin (1%), and 375 μg/ml geneticin (Gibco). Cells were released from culture flasks using trypsin/EDTA, harvested, washed twice with ice-cold PBS (without Ca^2+ and Mg^2+), pelleted at 1,000 rpm for 5 min at 4° C., frozen and stored at −80° C. Frozen pellets were suspended in 20 ml HEPES-NaOH (20 mM, pH 7.4) containing 10 mM EDTA and homogenized with a Polytron (PT 6000, Kinematica) at 14,000 rpm for 20 s. The homogenate was centrifuged at 48,000×g for 30 min at 4° C. Subsequently, the supernatant was removed and discarded, and the pellet resuspended in 20 ml HEPES-NaOH (20 mM, pH 7.4) containing 0.1 mM EDTA using the Polytron (20 s at 14,000 rpm). This procedure was repeated and the final pellet resuspended in HEPES-NaOH containing 0.1 mM EDTA and homogenized using the Polytron. Typically, aliquots of 2 ml membrane portions were stored at −80° C. With each new membrane batch the dissociation constant (Kd) was determined via a saturation curve. The TAAR1 radioligand ^3[H]—(S)-4-[(ethyl-phenyl-amino)-methyl]-4,5-dihydro-oxazol-2-ylamine (described in WO 2008/098857) was used at a concentration equal to the calculated Kd value, that was usually around 0.7 nM, resulting in the binding of approximately 0.5% of the radioligand and a specific binding representing approximately 70% of the total binding. Nonspecific binding was defined as the amount of ^3[H]—(S)-4-[(ethyl-phenyl-amino)-methyl]-4,5-dihydro-oxazol-2-ylamine bound in the presence of 10 μM unlabeled ligand. All compounds were tested at a broad range of concentrations (10 pM to 10 μM) in duplicates. The test compounds (20 μl/well) were transferred into a 96 deep well plate (TreffLab), and 180 μl of HEPES-NaOH (20 mM, pH 7.4) containing MgCl2 (10 mM) and CaCl2 (2 mM) (binding buffer), 300 μl of the radioligand ^3[H]—(S)-4-[(ethyl-phenyl-amino)-methyl]-4,5-dihydro-oxazol-2-ylamine at a concentration of 3.3×Kd in nM and 500 μl of the membranes (resuspended at 60 μg protein per ml) added. The 96 deep well plates were incubated for 1 hr at 4° C. Incubations were terminated by rapid filtration through Unifilter-96 plates (Packard Instrument Company) and glass filters GF/C (Perkin Elmer) presoaked for 1 hr in polyethylenimine (0.3%) and washed 3 times with 1 ml of cold binding buffer. […]

T1 sequence (Q923Y9 whole entry): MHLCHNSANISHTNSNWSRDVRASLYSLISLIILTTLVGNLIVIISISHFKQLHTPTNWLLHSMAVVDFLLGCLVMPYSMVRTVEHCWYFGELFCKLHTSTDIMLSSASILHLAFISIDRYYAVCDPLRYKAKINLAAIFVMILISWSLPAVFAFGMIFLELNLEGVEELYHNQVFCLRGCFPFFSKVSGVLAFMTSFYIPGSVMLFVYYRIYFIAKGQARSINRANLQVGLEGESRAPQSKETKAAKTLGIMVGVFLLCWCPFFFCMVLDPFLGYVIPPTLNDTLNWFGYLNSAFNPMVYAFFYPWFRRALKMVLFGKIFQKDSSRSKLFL
T2 sequence (Q923Y8 whole entry): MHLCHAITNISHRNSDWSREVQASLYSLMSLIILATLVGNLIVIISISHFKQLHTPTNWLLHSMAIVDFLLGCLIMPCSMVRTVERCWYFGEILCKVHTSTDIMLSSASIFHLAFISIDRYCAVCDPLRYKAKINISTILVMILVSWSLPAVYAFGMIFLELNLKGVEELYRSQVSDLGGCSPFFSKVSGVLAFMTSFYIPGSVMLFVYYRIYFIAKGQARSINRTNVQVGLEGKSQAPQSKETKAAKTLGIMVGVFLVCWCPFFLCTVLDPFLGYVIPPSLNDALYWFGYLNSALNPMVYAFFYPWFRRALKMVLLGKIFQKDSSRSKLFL

| Ki [1] | Ki [2] | Kd ([1]; rat TAAR1 membranes, saturation curve, usual value, read-out: dissociation constant (Kd) of the radioligand) | Kd ([2]; mouse TAAR1 membranes, saturation curve, usual value, read-out: dissociation constant (Kd) of the radioligand) | Compound |
| --- | --- | --- | --- | --- |
| 0.54 µM | 0.0136 µM | – | – | COc1cnc(C(=O)Nc2ccc([C@H]3CNCCO3)c(F)c2)cn1 [Example 10, (S)—N-(3-Fluoro-4-(morpholin-2-yl)phenyl)-5-methoxypyrazine-2-carboxamide hydrochloride] |
| 0.0625 µM | 0.0036 µM | – | – | O=C(Nc1ccc([C@H]2CNCCO2)c(F)c1)c1cnc(C2CC2)cn1 [Example 18, 5-Cyclopropyl-pyrazine-2-carboxylic acid ((S)-3-fluoro-4-morpholin-2-yl-phenyl)-amide hydrochloride] |
| 0.0708 µM | 0.0099 µM | – | – | O=C(Nc1ccc([C@@H]2CNCCO2)cc1F)c1cnc(C2CC2)cn1 [Example 20, (R)-5-Cyclopropyl-N-(2-fluoro-4-(morpholin-2-yl)phenyl)pyrazine-2-carboxamide] |
| 0.191 µM | 0.0193 µM | – | – | O=C(Nc1ccc([C@H]2CNCCO2)c(F)c1)c1cnc(N2CC(F)(F)C2)cn1 [Example 16, 5-(3,3-Difluoro-azetidin-1-yl)-pyrazine-2-carboxylic acid ((S)-3-fluoro-4-morpholin-2-yl-phenyl)-amide hydrochloride] |
| 0.0119 µM | 0.0046 µM | – | – | O=C(Nc1ccc([C@H]2CNCCO2)c(F)c1)c1cnc(OCC2CCC2)cn1 [Example 11, (S)-5-(Cyclobutylmethoxy)-N-(3-fluoro-4-(morpholin-2-yl)phenyl)pyrazine-2-carboxamide hydrochloride] |
| 0.068 µM | 0.147 µM | – | – | COc1cncc(C(=O)Nc2ccc([C@@H]3CNCCO3)c(F)c2)n1 [Example 7, (R)—N-(3-Fluoro-4-(morpholin-2-yl)phenyl)-6-methoxypyrazine-2-carboxamide hydrochloride] |
| 0.235 µM | 0.0061 µM | – | – | O=C(Nc1ccc([C@H]2CNCCO2)cc1F)c1cnc(C2CC2)cn1 [Example 19, (S)-5-Cyclopropyl-N-(2-fluoro-4-(morpholin-2-yl)phenyl)pyrazine-2-carboxamide] |

Continued, compound first:

| Compound | Ki [1] | Ki [2] | Kd ([1]; rat TAAR1 membranes, saturation curve, usual value, read-out: dissociation constant (Kd) of the radioligand) | Kd ([2]; mouse TAAR1 membranes, saturation curve, usual value, read-out: dissociation constant (Kd) of the radioligand) |
| --- | --- | --- | --- | --- |
| CC(C)c1cncc(C(=O)Nc2ccc([C@H]3CNCCO3)cc2F)n1 [Example 22, 6-Isopropyl-pyrazine-2-carboxylic acid ((S)-2-fluoro-4-morpholin-2-yl-phenyl)-amide] | 0.391 µM | 0.0522 µM | – | – |
| N#Cc1cc(NC(=O)c2cncc(C(F)(F)F)n2)ccc1[C@@H]1CNCCO1 [Example 4, (R)—N-(3-Cyano-4-(morpholin-2-yl)phenyl)-6-(trifluoromethyl)pyrazine-2-carboxamide hydrochloride] | 0.0344 µM | 0.0833 µM | – | – |
| Cc1ccc2ncc(C(=O)Nc3ccc([C@H]4CNCCO4)c(F)c3)nc2c1 [Example 15, 7-Methyl-quinoxaline-2-carboxylic acid ((S)-3-fluoro-4-morpholin-2-yl-phenyl)-amide hydrochloride] | 0.0131 µM | 0.0068 µM | – | – |
| CCN(C[C@H]1COC(N)=N1)c1ccccc1 [^3[H]—(S)-4-[(ethyl-phenyl-amino)-methyl]-4,5-dihydro-oxazol-2-ylamine, reference compound] | – | – | ~0.0023 µM | ~0.0007 µM |
| COc1cncc(C(=O)Nc2ccc([C@H]3CNCCO3)c(F)c2)n1 [Example 9, (S)—N-(3-Fluoro-4-(morpholin-2-yl)phenyl)-6-methoxypyrazine-2-carboxamide hydrochloride] | 0.247 µM | 0.0314 µM | – | – |
| O=C(Nc1ccc([C@H]2CNCCO2)cc1F)c1cnc(OCC(F)(F)F)cn1 [Example 23, (S)—N-(2-Fluoro-4-(morpholin-2-yl)phenyl)-5-(2,2,2-trifluoroethoxy)pyrazine-2-carboxamide] | 0.0881 µM | 0.0046 µM | – | – |
| N#Cc1cc(NC(=O)c2cnc(C(F)(F)F)cn2)ccc1[C@H]1CNCCO1 [Example 3, (S)—N-(3-Cyano-4-(morpholin-2-yl)phenyl)-5-(trifluoromethyl)pyrazine-2-carboxamide hydrochloride] | 1.09 µM | 0.0204 µM | – | – |
| N#Cc1cc(NC(=O)c2cnc(C(F)(F)F)cn2)ccc1[C@@H]1CNCCO1 [Example 2, (R)—N-(3-Cyano-4-(morpholin-2-yl)phenyl)-5-(trifluoromethyl)pyrazine-2-carboxamide hydrochloride] | 0.0186 µM | 0.0184 µM | – | – |
| CC(C)c1cncc(C(=O)Nc2ccc([C@H]3CNCCO3)c(F)c2)n1 [Example 21, 6-Isopropyl-pyrazine-2-carboxylic acid ((S)-3-fluoro-4-morpholin-2-yl-phenyl)-amide] | 0.0849 µM | 0.0181 µM | – | – |
| O=C(Nc1ccc([C@@H]2CNCCO2)cc1F)c1cnc(OCC(F)(F)F)cn1 [Example 27, (R)—N-(2-Fluoro-4-(morpholin-2-yl)phenyl)-5-(2,2,2-trifluoroethoxy)pyrazine-2-carboxamide] | 0.0183 µM | 0.0059 µM | – | – |
| O=C(Nc1ccc([C@H]2CNCCO2)c(F)c1)c1cnc2ccccc2n1 [Example 14, (S)—N-(3-Fluoro-4-(morpholin-2-yl)phenyl)quinoxaline-2-carboxamide hydrochloride] | 0.0222 µM | 0.0028 µM | – | – |
| O=C(Nc1ccc([C@H]2CNCCO2)cc1F)c1cncc(OCC(F)(F)F)n1 [Example 25, (S)—N-(2-Fluoro-4-(morpholin-2-yl)phenyl)-6-(2,2,2-trifluoroethoxy)pyrazine-2-carboxamide] | 0.0122 µM | 0.044 µM | – | – |
| O=C(Nc1ccc([C@@H]2CNCCO2)c(F)c1)c1cncc(C(F)(F)F)n1 [Example 6, (R)—N-(3-Fluoro-4-(morpholin-2-yl)phenyl)-6-(trifluoromethyl)pyrazine-2-carboxamide hydrochloride] | 0.0197 µM | 0.0328 µM | – | – |
